{"source": "patent EP1561465A2", "about": "“Methods of use of fluoroquinolone compounds against bacteria” (LG Life Sciences, Ltd., priority 1999, dated 2001)", "type_in_all_cases": "cell-based", "key": {"Serratia marcescens": {"system": "Serratia marcescens", "test": "MIC by NCCLS broth microdilution, 1100 Japanese clinical isolates 1997-1998"}, "[1]": {"system": "Streptococcus pneumoniae and Haemophilus influenzae", "test": "MIC by broth microdilution (NCCLS), all isolates pooled"}, "Proteus mirabilis": {"system": "Proteus mirabilis", "test": "MIC by NCCLS broth microdilution, 1100 Japanese clinical isolates 1997-1998"}, "Morganella morganii": {"system": "Morganella morganii", "test": "MIC by NCCLS broth microdilution, 1100 Japanese clinical isolates 1997-1998"}, "Aeromonas spp.": {"system": "Aeromonas spp.", "test": "MIC by agar dilution (NCCLS M7-A4), 288 enteropathogenic isolates, gemifloxacin and 15 other antimicrobials", "conditions": "Aeromonas spp. N= 16"}, "Streptococcus pneumoniae [2]": {"system": "Streptococcus pneumoniae", "test": "MIC by agar dilution (NCCLS), 411 isolates Buenos Aires 1998-99", "conditions": "for MIC / MIC90: Streptococcus pneumoniae; for MIC: Ciprofloxacin-resistant S. pneumoniae, read-out: MIC; for MIC90: read-out: MIC90"}, "Streptococcus pneumoniae [3]": {"system": "Streptococcus pneumoniae", "test": "MIC by broth microdilution (NCCLS), dried MicroScan panels, clinical isolates 1998-1999", "conditions": "for MIC90: Streptococcus pneumoniae"}, "Klebsiella pneumoniae": {"system": "Klebsiella pneumoniae", "test": "MIC by NCCLS reference broth microdilution, 450 respiratory tract pathogens", "conditions": "for MIC50 / MIC90: Klebsiella pneumoniae"}, "Shigella spp.": {"system": "Shigella spp.", "test": "MIC by agar dilution (NCCLS M7-A4), 288 enteropathogenic isolates, gemifloxacin and 15 other antimicrobials", "conditions": "Shigella spp. N= 21", "in_short": "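Agar dilution with ~10^4 cfu/spot inoculum; plates incubated aerobically at 35 °C for 24 h, except C. jejuni, held microaerophilically for 48 h. MIC taken as lowest antibiotic concentration with no visible growth.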"}, "Haemophilus influenzae": {"system": "Haemophilus influenzae", "test": "MIC by broth microdilution (NCCLS), dried MicroScan panels, clinical isolates 1998-1999", "conditions": "for MIC90: Haemophilus influenzae"}, "[4]": {"conditions": "Streptococcus pneumoniae (n = 90)"}, "[5]": {"conditions": "Streptococcus pneumoniae (302 isolates)"}, "[6]": {"conditions": "extended spectrum β-lactamase negative (n = 30)"}, "[7]": {"conditions": "extended spectrum β-lactamase positive (n = 20)"}, "[8]": {"conditions": "Haemophilus influenzae (300 isolates)"}}, "note": "Like-named read-outs stand apart in the source and are kept apart here.", "data": [{"smiles": "C[C@H]1COc2c(N3CCN(C)CC3)c(F)cc3c(=O)c(C(=O)O)cn1c23", "note": "[Levofloxacin, levofloxacin]", "values": [{"measurement": "MIC50", "setting": "Serratia marcescens; Serratia marcescens", "value": 0.125, "unit": "µg/mL"}, {"measurement": "MIC90", "setting": "Serratia marcescens; Serratia marcescens (n=30)", "value": 0.5, "unit": "µg/mL"}, {"measurement": "MIC Range", "setting": "Serratia marcescens; Serratia marcescens (n=30)", "value": "0.063 to 32", "unit": "µg/mL"}, {"measurement": "MIC90", "setting": "[1]; all (380) isolates tested (235 S. pneumoniae, 145 H. influenzae)", "value": 1, "unit": "µg/mL"}, {"measurement": "MIC90", "setting": "[1]; all isolates tested (602)", "value": 1, "unit": "µg/mL"}, {"measurement": "MIC90", "setting": "Proteus mirabilis; Proteus mirabilis", "value": 0.125, "unit": "µg/mL"}, {"measurement": "MIC Range", "setting": "Proteus mirabilis; Proteus mirabilis (n=30)", "value": "0.032 to 2", "unit": "µg/mL"}, {"measurement": "MIC50", "setting": "Proteus mirabilis; Proteus mirabilis (n=30), read-out: MIC50", "value": 0.063, "unit": "µg/mL"}, {"measurement": "MIC90", "setting": "Morganella morganii; Morganella morganii", "value": 0.125, "unit": "µg/mL"}, {"measurement": "MIC Range", "setting": "Morganella morganii; Morganella morganii (n=40)", "value": "0.016 to 8", "unit": "µg/mL"}, {"measurement": "MIC50", "setting": "Morganella morganii; Morganella morganii (n=40), read-out: MIC50", "value": 0.032, "unit": "µg/mL"}, {"measurement": "MIC (mg/L) Range", "setting": "Aeromonas spp.", "value": "≤0.015 to 0.06", "unit": "mg/L"}, {"measurement": "MIC", "setting": "Aeromonas spp.; read-out: MIC (mg/L) 50%", "value": "≤ 0.015", "unit": "mg/L"}, {"measurement": "MIC", "setting": "Aeromonas spp.; read-out: MIC (mg/L) 90%", "value": "≤ 0.015", "unit": "mg/L"}, {"measurement": "MIC Range", "setting": "Streptococcus pneumoniae [2]; [4]", "value": "0.25 to 4", "unit": "µg/mL"}, {"measurement": "MIC", "setting": "Streptococcus pneumoniae [2]; Strain 1", "value": 1, "unit": "µg/mL"}, {"measurement": "MIC", "setting": "Streptococcus pneumoniae [2]; Strain 2", "value": 1, "unit": "µg/mL"}, {"measurement": "MIC", "setting": "Streptococcus pneumoniae [2]; Strain 3", "value": 4, "unit": "µg/mL"}, {"measurement": "MIC", "setting": "Streptococcus pneumoniae [2]; Strain 4", "value": 2, "unit": "µg/mL"}, {"measurement": "MIC90", "setting": "Streptococcus pneumoniae [2]; S. pneumoniae, Penicillin intermediate (n = 17)", "value": 1, "unit": "µg/mL"}, {"measurement": "MIC90", "setting": "Streptococcus pneumoniae [2]; S. pneumoniae, Penicillin resistant (n = 4)", "value": 1, "unit": "µg/mL"}, {"measurement": "MIC90", "setting": "Streptococcus pneumoniae [2]; S. pneumoniae, Penicillin susceptible (n = 69)", "value": 1, "unit": "µg/mL"}, {"measurement": "MIC90", "setting": "Streptococcus pneumoniae [2]; [4]", "value": 1, "unit": "µg/mL"}, {"measurement": "MIC50", "setting": "Streptococcus pneumoniae [3]; [5]", "value": 1, "unit": "µg/mL"}, {"measurement": "MIC Range", "setting": "Streptococcus pneumoniae [3]; [5]", "value": "≤0.015 to 2", "unit": "µg/mL"}, {"measurement": "MIC90", "setting": "Streptococcus pneumoniae [3]; Erythromycin-resistant (86)", "value": 1, "unit": "µg/mL"}, {"measurement": "MIC90", "setting": "Streptococcus pneumoniae [3]; Erythromycin-sensitive (216)", "value": 2, "unit": "µg/mL"}, {"measurement": "MIC90", "setting": "Streptococcus pneumoniae [3]; Penicillin-intermediate (124)", "value": 1, "unit": "µg/mL"}, {"measurement": "MIC90", "setting": "Streptococcus pneumoniae [3]; Penicillin-resistant (80)", "value": 1, "unit": "µg/mL"}, {"measurement": "MIC90", "setting": "Streptococcus pneumoniae [3]; Penicillin-sensitive (98)", "value": 1, "unit": "µg/mL"}, {"measurement": "MIC90", "setting": "Streptococcus pneumoniae [3]; [5]", "value": 1, "unit": "µg/mL"}, {"measurement": "MIC Range", "setting": "Klebsiella pneumoniae; Klebsiella pneumoniae (n = 50)", "value": "0.15 to 1", "unit": "µg/mL"}, {"measurement": "MIC50", "setting": "Klebsiella pneumoniae; Klebsiella pneumoniae (n = 50)", "value": 0.06, "unit": "µg/mL"}, {"measurement": "MIC90", "setting": "Klebsiella pneumoniae; Klebsiella pneumoniae (n = 50)", "value": 0.5, "unit": "µg/mL"}, {"measurement": "MIC50", "setting": "Klebsiella pneumoniae; [6]", "value": 0.06, "unit": "µg/mL"}, {"measurement": "MIC90", "setting": "Klebsiella pneumoniae; [6]", "value": 0.12, "unit": "µg/mL"}, {"measurement": "MIC50", "setting": "Klebsiella pneumoniae; [7]", "value": 0.5, "unit": "µg/mL"}, {"measurement": "MIC90", "setting": "Klebsiella pneumoniae; [7]", "value": 0.5, "unit": "µg/mL"}, {"measurement": "MIC Range", "setting": "Klebsiella pneumoniae; [6]", "value": "0.015 to 0.5", "unit": "µg/mL"}, {"measurement": "MIC Range", "setting": "Klebsiella pneumoniae; [7]", "value": "0.06 to 1", "unit": "µg/mL"}, {"measurement": "MIC", "setting": "Shigella spp.; 24 h, read-out: MIC (mg/L) Range", "value": "0.015 to 0.03", "unit": "mg/L"}, {"measurement": "MIC", "setting": "Shigella spp.; read-out: MIC (mg/L) 50%", "value": 0.03, "unit": "mg/L"}, {"measurement": "MIC", "setting": "Shigella spp.; read-out: MIC (mg/L) 90%", "value": 0.03, "unit": "mg/L"}, {"measurement": "MIC50", "setting": "Haemophilus influenzae; [8]", "value": "≤ 0.015", "unit": "µg/mL"}, {"measurement": "MIC Range", "setting": "Haemophilus influenzae; [8]", "value": "≤0.015 to 0.5", "unit": "µg/mL"}, {"measurement": "MIC90", "setting": "Haemophilus influenzae; [8]", "value": 0.03, "unit": "µg/mL"}, {"measurement": "MIC90", "setting": "Haemophilus influenzae; β-lactamase negative (234)", "value": 0.03, "unit": "µg/mL"}, {"measurement": "MIC90", "setting": "Haemophilus influenzae; β-lactamase positive (66)", "value": 0.03, "unit": "µg/mL"}]}]}
